Measured values published in patent US10301305B2 (priority 2014, dated 2019).
Where a name gives a salt, the structure may show the parent alone.

Legend:
Type in all cases: biochemical
[1] = target: S. aureus DltA (Staphylococcus aureus (strain NCTC 8325 / PS 47), UniProt Q2FZW6); assay: in vitro DltA activity assay (luminescence), S. aureus DltA; details: recombinant DltA, 30 min pre-incubation, 0.5 mM D-Alanine, 0.5-5 μM ATP; read-out: S. aureus DltA IC50
Description: (§1) The effect of the compounds of the invention on DltA enzymes has been based on the measure of their inhibition of DltA activity in vitro. To this end, recombinant proteins DltA were expressed and purified after cloning of the genes of S. aureus, E. faecalis, E. faecium and S. agalactiae as described thereafter. The capacity of the compounds of the invention to inhibit DltA enzymatic activity was assessed using the DltA assays as described below:
(§2) The dltA gene was amplified from chromosomal DNA of S. aureus, E. faecalis, E. faecium and S. agalactiae and introduced into E. coli BL21 (Invitrogen, Carlsbad, Calif.) following manufacturer's instruction. Bacteria were grown at 37° C. under aerobic conditions and isopropyl-beta-D-thiogalactopyranoside (IPTG) was added to 0.5-1 mM when OD600 of the bacterial culture had reached 0.5. After a further incubation for 3 hours, cells were harvested by centrifugation. Purification of the recombinant DltA protein was performed by affinity chromatography on nickel-nitrilotriacetic acid (Ni-NTA) column following manufacturer's instructions (Qiagen). Fractions containing recombinant DltA protein were adjusted to 50% glycerol and stored at −20° C. until use.
(§3) The binding potency of the inhibitors against DltA enzyme was assessed by IC50 determination in an in vitro DltA activity assay. The assay buffer “AB” contained 50 mM Hepes pH8.0, 10 mM MgCl2, 50 mM KCl, 0.012% Triton-X100, 10 mM DTT and 100 nM Myelin-basic protein. The following components were added in a white polystyrene Costar plate up to a final volume of 30 μL: 3 μL DMSO, or inhibitor dissolved in DMSO and 27 μL DltA enzyme in AB. After 30 min of pre-incubation at room temperature, 30 μL of Substrates mix in AB were added in each well to a final volume of 60 μL. This reaction mixture was then composed of DltA (produced in house from S. aureus, E. faecalis, E. faecium and S. agalactiae), 0.5 mM D-Alanine (Sigma), 0.5-5 μM ATP (Sigma) and 0.05 u/ml inorganic pyrophosphatase (Sigma) in assay buffer. After typically 1-2 hours of incubation at room temperature (conversion rate around 30%), 30 μL of the revelation mix were added to a final volume of 90 μL, including the following constituents at the respective final concentrations: 10000 u/ml luciferase (Sigma), 30 μM D-luciferin (Sigma), 100 μM N-acetylcysteamine (Aldrich). Luminescence intensity was immediately measured on a Fluostar Optima (BMG) (excitation 360 nm, emission 520 nm) and converted into inhibition percentages. For IC50 determinations (Inhibitory Concentration 50%) the inhibitor was added at 6 to 10 different concentrations and the related inhibitions were fitted to a classical Langmuir equilibrium model using XLFIT (IDBS).
(§4) For compounds interfering with the luminescent signal (quenching), the same experiment without DltA enzyme was performed to allow quenching determination and correction.

[2] = target: S. Agalactiae DltA (Streptococcus agalactiae serotype III (strain NEM316), UniProt Q8VM67); assay: in vitro DltA activity assay (luminescence), S. agalactiae DltA; details: recombinant DltA, 30 min pre-incubation, 0.5 mM D-Alanine, 0.5-5 μM ATP; read-out: S. Agalactiae DltA IC50
Description: as §1, §2, §3, §4

[3] = target: E. feacalis DltA (Enterococcus faecalis, UniProt Q830N0); assay: in vitro DltA activity assay (luminescence), E. faecalis DltA; details: recombinant DltA, 30 min pre-incubation, 0.5 mM D-Alanine, 0.5-5 μM ATP; read-out: E. feacalis DltA IC50
Chain of E. feacalis DltA (Q830N0 1-506): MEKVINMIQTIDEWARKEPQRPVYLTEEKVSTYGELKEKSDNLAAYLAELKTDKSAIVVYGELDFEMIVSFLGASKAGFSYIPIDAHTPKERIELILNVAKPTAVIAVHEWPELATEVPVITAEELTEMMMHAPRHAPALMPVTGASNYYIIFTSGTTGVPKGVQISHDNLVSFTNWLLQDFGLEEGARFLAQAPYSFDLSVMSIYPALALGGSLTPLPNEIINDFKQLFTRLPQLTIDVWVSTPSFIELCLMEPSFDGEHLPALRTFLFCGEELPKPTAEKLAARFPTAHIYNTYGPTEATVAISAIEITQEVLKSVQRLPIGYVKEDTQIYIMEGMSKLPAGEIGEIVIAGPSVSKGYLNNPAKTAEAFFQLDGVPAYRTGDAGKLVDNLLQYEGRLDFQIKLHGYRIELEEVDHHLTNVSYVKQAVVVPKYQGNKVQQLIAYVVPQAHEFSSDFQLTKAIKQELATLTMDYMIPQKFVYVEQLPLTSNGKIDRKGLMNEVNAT
Description: as §1, §2, §3, §4

[4] = target: E. feacium DltA (Enterococcus faecium, UniProt Q3XZT7); assay: in vitro DltA activity assay (luminescence), E. faecium DltA; details: recombinant DltA, 30 min pre-incubation, 0.5 mM D-Alanine, 0.5-5 μM ATP; read-out: E. feacium DltA IC50
Chain of E. feacium DltA (Q3XZT7 1-504): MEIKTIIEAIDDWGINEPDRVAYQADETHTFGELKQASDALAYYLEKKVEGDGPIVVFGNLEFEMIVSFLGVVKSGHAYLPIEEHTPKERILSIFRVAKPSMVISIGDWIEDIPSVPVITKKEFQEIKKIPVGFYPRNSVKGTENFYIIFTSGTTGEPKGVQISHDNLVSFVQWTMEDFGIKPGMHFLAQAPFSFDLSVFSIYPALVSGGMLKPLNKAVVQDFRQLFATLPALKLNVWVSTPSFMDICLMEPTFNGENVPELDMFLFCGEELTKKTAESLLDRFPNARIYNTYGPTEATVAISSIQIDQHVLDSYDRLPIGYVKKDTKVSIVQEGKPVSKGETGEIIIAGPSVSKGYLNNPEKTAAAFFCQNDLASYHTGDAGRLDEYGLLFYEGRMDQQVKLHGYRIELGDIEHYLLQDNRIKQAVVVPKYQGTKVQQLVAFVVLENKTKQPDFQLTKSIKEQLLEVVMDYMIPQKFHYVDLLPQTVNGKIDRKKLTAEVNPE
Description: as §1, §2, §3, §4

| Structure (SMILES) | IC50 [1] | IC50 [2] | IC50 [3] | IC50 [4] |
| --- | --- | --- | --- | --- |
| CN(CCN1CCCC1)c1cc(-c2cnc3c(c2)CCCO3)c2nc[nH]c2c1C(N)=O [Example 181, 7-(3,4-Dihydro-2H-pyrano[2,3-b]pyridin-6-yl)-5-[methyl-(2-pyrrolidin-1-yl-ethyl)-amino]-3H-benzimidazole-4-carboxamide] | 51 nM | 180 nM | 9.2 nM | 160 nM |
| CN(C)CCOc1cc(-c2cnc3c(c2)CCCO3)c2nc[nH]c2c1C(N)=O [Example 182, 7-(3,4-Dihydro-2H-pyrano[2,3-b]pyridin-6-yl)-5-(2-dimethylamino-ethoxy)-3H-benzimidazole-4-carboxamide methanesulfonic acid salt] | 4.8 nM | 480 nM | 4.5 nM | 59 nM |
| CCn1cnc2cc(-c3nc(N(C)CCN(C)C)c(C(N)=O)c4[nH]cnc34)ccc21 [Example 200, 6-[2-(dimethylamino)ethyl-methyl-amino]-4-(1-ethylbenzimidazol-5-yl)-1H-imidazo[4,5-c]pyridine-7-carboxamide] | 22 nM | 5400 nM | 71 nM | 800 nM |
| CN(C)CCN(C)c1cc(-c2cncc(C3CC3)c2)c2nc[nH]c2c1C(N)=O [Example 202, 4-(5-cyclopropylpyridin-3-yl)-6-((2-(dimethylamino)ethyl)-(methyl)amino)-1H-benzo[d]imidazole-7-carboxamide] | 110 nM | 2000 nM | 95 nM | 190 nM |
| CCCCn1cnc2cc(-c3cc(N(C)CCN(C)C)c(C(N)=O)c4[nH]cnc34)ccc21 [Example 203, 7-(1-butylbenzimidazol-5-yl)-5-[2-(dimethylamino)ethyl-methyl-amino]-3H-benzimidazole-4-carboxamide] | 28 nM | 350 nM | 7.3 nM | 110 nM |
| CN(C)CCN(C)c1cc(-c2ccc3c(c2)ncn3-c2ccccc2)c2nc[nH]c2c1C(N)=O [Example 204, 5-[2-(dimethylamino)ethyl-methyl-amino]-7-(1-phenylbenzimidazol-5-yl)-3H-benzimidazole-4-carboxamide] | 17 nM | 1400 nM | 12 nM | 58 nM |
| CN(C)CCN(C)c1cc(-c2ccc(N(C)C)nc2)c2nc[nH]c2c1C(N)=O [Example 205, 5-[2-(dimethylamino)ethyl-methyl-amino]-7-[6-(dimethylamino)-3-pyridyl]-3H-benzimidazole-4-carboxamide] | 140 nM | 4300 nM | 9.2 nM | 30 nM |
| CN1CCCC(Oc2cc(-c3cnc4c(c3)CCCO4)c3nc[nH]c3c2C(N)=O)C1 (stereo not shown) [Example 208, 7-(3,4-dihydro-2H-pyrano[2,3-b]pyridin-6-yl)-5-[(1-methyl-3-piperidyl)oxy]-3H-benzimidazole-4-carboxamide methanesulfonic acid salt] | 230 nM | 1900 nM | 61 nM | 280 nM |
| CN1CCC[C@@H]1COc1cc(-c2cnc3c(c2)CCCO3)c2nc[nH]c2c1C(N)=O [Example 210, 7-(3,4-dihydro-2H-pyrano[2,3-b]pyridin-6-yl)-5-[[(2R)-1-methylpyrrolidin-2-yl]methoxy]-3H-benzimidazole-4-carboxamide methanesulfonic acid salt] | 6.2 nM | 150 nM | 5.1 nM | 36 nM |
| NC(=O)c1c(N2CCC(CO)(CO)CC2)cc(-c2ccc3c(c2)ncn3C2CCCCC2)c2nc[nH]c12 [Example 211, 5-[4,4-bis(hydroxymethyl)-1-piperidyl]-7-(1-cyclohexylbenzimidazol-5-yl)-3H-benzimidazole-4-carboxamide] | 24 nM | 470 nM | 6.8 nM | 2 nM |
